US10526309B2, “Pan-TAM inhibitors and Mer/Axl dual inhibitors” (The University of North Carolina at Chapel Hill, priority 2015, dated 2020)
pIC50: −log10 of the molar value. Read-outs that look alike come from different tables or passages of the source.

What was measured:
Type in all cases: biochemical
Mer = target: T1, Mer (Homo sapiens, UniProt Q12866); experiment: Mer kinase inhibition IC50; conditions: read-out: Mer IC50
T1 sequence (Q12866 21-999): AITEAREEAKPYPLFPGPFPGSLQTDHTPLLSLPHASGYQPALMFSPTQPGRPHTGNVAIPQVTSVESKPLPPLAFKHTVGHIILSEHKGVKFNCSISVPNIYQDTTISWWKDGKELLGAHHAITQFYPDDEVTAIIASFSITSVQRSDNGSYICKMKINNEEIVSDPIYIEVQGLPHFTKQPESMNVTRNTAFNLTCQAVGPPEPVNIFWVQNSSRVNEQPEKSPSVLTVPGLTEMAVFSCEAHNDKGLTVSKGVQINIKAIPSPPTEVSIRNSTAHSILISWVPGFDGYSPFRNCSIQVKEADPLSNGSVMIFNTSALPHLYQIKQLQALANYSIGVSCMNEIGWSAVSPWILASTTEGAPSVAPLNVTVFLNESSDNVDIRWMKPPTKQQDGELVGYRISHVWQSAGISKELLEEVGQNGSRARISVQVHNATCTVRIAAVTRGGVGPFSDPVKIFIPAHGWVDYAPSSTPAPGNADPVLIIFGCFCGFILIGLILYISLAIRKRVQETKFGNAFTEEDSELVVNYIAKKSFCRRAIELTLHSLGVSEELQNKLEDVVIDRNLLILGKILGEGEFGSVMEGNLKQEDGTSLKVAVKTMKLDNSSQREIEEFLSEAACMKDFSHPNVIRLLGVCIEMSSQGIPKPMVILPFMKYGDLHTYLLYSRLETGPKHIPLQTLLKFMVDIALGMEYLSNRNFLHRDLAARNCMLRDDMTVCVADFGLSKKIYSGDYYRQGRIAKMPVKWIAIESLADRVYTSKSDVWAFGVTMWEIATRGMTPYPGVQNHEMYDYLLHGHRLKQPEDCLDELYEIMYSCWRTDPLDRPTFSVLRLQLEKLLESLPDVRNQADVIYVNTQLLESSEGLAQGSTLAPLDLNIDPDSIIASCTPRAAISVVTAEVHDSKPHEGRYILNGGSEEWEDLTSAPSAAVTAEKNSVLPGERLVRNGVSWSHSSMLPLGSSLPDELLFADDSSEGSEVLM

Axl = target: T2, Axl (Homo sapiens, UniProt P30530); experiment: Axl kinase inhibition IC50
T2 sequence (P30530 26-894): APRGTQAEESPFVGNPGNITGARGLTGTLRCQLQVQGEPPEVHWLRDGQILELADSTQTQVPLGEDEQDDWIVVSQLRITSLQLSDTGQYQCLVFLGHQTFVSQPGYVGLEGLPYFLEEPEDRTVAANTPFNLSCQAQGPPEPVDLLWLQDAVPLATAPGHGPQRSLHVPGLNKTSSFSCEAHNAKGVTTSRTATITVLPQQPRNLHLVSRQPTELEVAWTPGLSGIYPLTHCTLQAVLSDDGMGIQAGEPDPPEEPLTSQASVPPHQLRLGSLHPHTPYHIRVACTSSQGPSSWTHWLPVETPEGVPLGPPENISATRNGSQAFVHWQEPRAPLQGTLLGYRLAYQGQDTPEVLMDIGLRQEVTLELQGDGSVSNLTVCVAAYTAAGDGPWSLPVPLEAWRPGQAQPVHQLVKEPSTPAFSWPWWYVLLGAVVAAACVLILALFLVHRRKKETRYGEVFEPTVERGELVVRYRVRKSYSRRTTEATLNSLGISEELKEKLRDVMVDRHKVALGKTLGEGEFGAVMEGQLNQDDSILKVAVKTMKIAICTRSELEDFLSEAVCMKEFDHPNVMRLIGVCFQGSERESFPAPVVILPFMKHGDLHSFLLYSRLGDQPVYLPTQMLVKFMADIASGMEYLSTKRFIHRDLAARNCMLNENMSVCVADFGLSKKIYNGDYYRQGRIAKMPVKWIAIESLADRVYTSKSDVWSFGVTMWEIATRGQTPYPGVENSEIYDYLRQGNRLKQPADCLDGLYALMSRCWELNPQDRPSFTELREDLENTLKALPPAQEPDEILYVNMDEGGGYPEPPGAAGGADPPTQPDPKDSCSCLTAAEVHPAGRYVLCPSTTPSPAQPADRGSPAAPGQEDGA

Tyro3 = target: T3, Tyro3 (Homo sapiens, UniProt Q06418); experiment: Tyro3 kinase inhibition IC50
T3 sequence (Q06418 41-890): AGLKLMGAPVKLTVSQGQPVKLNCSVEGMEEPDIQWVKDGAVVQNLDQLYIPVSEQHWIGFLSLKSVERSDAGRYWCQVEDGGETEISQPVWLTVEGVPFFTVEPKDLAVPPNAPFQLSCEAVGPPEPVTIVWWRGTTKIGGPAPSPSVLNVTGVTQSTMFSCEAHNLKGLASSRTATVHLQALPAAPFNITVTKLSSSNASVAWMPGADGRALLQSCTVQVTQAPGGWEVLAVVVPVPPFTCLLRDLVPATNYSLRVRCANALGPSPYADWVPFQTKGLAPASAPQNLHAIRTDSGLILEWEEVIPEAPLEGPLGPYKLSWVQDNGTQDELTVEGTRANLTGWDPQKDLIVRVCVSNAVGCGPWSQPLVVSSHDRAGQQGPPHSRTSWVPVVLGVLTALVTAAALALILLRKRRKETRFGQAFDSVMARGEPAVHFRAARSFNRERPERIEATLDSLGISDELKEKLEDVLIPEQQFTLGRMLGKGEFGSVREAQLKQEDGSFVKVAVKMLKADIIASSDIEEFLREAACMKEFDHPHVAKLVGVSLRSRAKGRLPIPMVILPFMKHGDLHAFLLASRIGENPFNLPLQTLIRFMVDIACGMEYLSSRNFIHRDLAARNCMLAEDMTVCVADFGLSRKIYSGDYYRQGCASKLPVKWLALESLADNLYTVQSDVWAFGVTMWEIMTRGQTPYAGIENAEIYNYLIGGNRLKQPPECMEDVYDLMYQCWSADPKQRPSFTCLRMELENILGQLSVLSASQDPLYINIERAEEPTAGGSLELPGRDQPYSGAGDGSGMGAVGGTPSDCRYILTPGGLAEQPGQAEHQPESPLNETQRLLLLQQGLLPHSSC

Structure (SMILES)	pIC50 (Mer; Table 2)	pIC50 (Axl; Table 2)	pIC50 (Tyro3; Table 2, read-out: Tyro3 IC50)	pIC50 (Mer; Table 3)	pIC50 (Axl; Table 3)	pIC50 (Tyro3; Table 3, read-out: Tyro3 IC50)	further results
O[C@H]1CC[C@H](Nc2nc(Nc3ccc(C#Cc4cc(-c5ncc[nH]5)ccn4)cc3)ncc2-c2ccccn2)CC1 [UNC4357A]	–	–	–	–	–	–	pIC50 (Mer; Table 4): 6.00 to 7.00; pIC50 (Axl; Table 4): 4.52 to 6.00; pIC50 (Tyro3; Table 4, read-out: Tryo3 IC50): 6.00 to 7.00
O[C@H]1CC[C@H](Nc2nc(Nc3ccc(C#Cc4cc(Nc5ncco5)ccn4)cc3)ncc2-c2ccccn2)CC1 [UNC4392A]	–	–	–	–	–	–	pIC50 (Mer; Table 4): 6.00 to 7.00; pIC50 (Axl; Table 4): 4.52 to 6.00; pIC50 (Tyro3; Table 4, read-out: Tryo3 IC50): 6.00 to 7.00
Cc1cc(Nc2ncc(-c3ccc(CN4CCN(C)CC4)cc3)c(N[C@H]3CC[C@H](O)CC3)n2)ccc1C#Cc1cc(NC(=O)C(C)C)ccn1 [UNC4044A]	–	–	–	> 8.00	> 8.00	> 8.00	–
CC(=O)Nc1ccnc(C#Cc2ccc(Nc3ncc(-c4ccc(CN5CCN(C)CC5)cc4)c(N[C@H]4CC[C@H](O)CC4)n3)cc2)c1 [UNC3874A]	–	–	–	7.00 to 8.00	6.00 to 7.00	7.00 to 8.00	–
O[C@H]1CC[C@H](Nc2nc(Nc3ccc(C#Cc4cc(-c5cncnc5)ccn4)cc3)ncc2-c2ccccn2)CC1 [UNC4362A]	–	–	–	–	–	–	pIC50 (Mer; Table 4): 7.00 to 8.00; pIC50 (Axl; Table 4): 6.00 to 7.00; pIC50 (Tyro3; Table 4, read-out: Tryo3 IC50): 6.00 to 7.00
CC(C)C(=O)Nc1ccnc(C#Cc2ccc(Nc3ncc(-c4ccc(CN5CCN(C)CC5)cc4)c(N[C@H]4CC[C@H](O)CC4)n3)c(Cl)c2)c1 [UNC4046A]	–	–	–	7.00 to 8.00	> 8.00	7.00 to 8.00	–
CC(C)Oc1ccnc(C#Cc2ccc(Nc3ncc(-c4ccccn4)c(N[C@H]4CC[C@H](O)CC4)n3)cc2)c1 [UNC4394A]	–	–	–	–	–	–	pIC50 (Mer; Table 5): 6.00 to 7.00; pIC50 (Axl; Table 5): 6.00 to 7.00; pIC50 (Tyro3; Table 5, read-out: Tryo3 IC50): 6.00 to 7.00
CC(C)C(=O)Nc1ccnc(C#Cc2ccc(Nc3ncc(-c4ccc(CN5CCN(C)CC5)cc4)c(N[C@H]4CC[C@H](O)CC4)n3)cc2F)c1 [UNC4045A]	–	–	–	> 8.00	> 8.00	> 8.00	–
CN1CCN(Cc2ccc(-c3cnc(Nc4ccc(C#Cc5cc(NC(=O)C6CCCCC6)ccn5)cc4)nc3N[C@H]3CC[C@H](O)CC3)cc2)CC1 [UNC3873A]	–	–	–	> 8.00	7.00 to 8.00	7.00 to 8.00	–
CC(C)C(=O)Nc1ccnc(C#Cc2ccc(Nc3ncc(-c4ccccn4)c(N[C@H]4CC[C@H](O)CC4)n3)cc2)c1 [UNC4042A]	–	–	–	> 8.00	> 8.00	> 8.00	–
NS(=O)(=O)c1ccc(-c2cnc(Nc3ccc(C#Cc4cc(C(=O)NC5CC5)ccn4)cc3)nc2N[C@H]2CC[C@H](O)CC2)nc1 [UNC3457A]	–	–	–	7.00 to 8.00	7.00 to 8.00	6.00 to 7.00	–
CC(C)Nc1ccnc(C#Cc2ccc(Nc3ncc(-c4ccccn4)c(N[C@H]4CC[C@H](O)CC4)n3)cc2)c1 [UNC4364A]	–	–	–	–	–	–	pIC50 (Mer; Table 4): 7.00 to 8.00; pIC50 (Axl; Table 4): 6.00 to 7.00; pIC50 (Tyro3; Table 4, read-out: Tryo3 IC50): 7.00 to 8.00
CN1CCN(Cc2ccc(-c3cnc(Nc4ccc(C#Cc5cc(N)ccn5)cc4)nc3N[C@H]3CC[C@H](O)CC3)cc2)CC1 [UNC3869A]	–	–	–	7.00 to 8.00	4.52 to 6.00	6.00 to 7.00	–
CN(C)C(=O)c1ccnc(C#Cc2ccc(Nc3ncc(-c4ccccn4)c(N[C@H]4CC[C@H](O)CC4)n3)cc2)c1 [UNC3459A]	–	–	–	7.00 to 8.00	4.52 to 6.00	> 8.00	–

Now from value to compound, other results behind:

pIC50 (Mer; Table 2)	pIC50 (Axl; Table 2)	pIC50 (Tyro3; Table 2, read-out: Tyro3 IC50)	pIC50 (Mer; Table 3)	pIC50 (Axl; Table 3)	pIC50 (Tyro3; Table 3, read-out: Tyro3 IC50)	Structure (SMILES)	further results
6.00 to 7.00	4.52 to 6.00	6.00 to 7.00	–	–	–	O[C@H]1CC[C@H](Nc2nc(Nc3ccc(C4=CCNCC4)cc3)ncc2-c2ccccn2)CC1 [UNC4402A]	–
7.00 to 8.00	6.00 to 7.00	6.00 to 7.00	–	–	–	O[C@H]1CC[C@H](Nc2nc(Nc3ccc(C4=CCCNC4)cc3)ncc2-c2ccccn2)CC1 [UNC5113A]	–
7.00 to 8.00	6.00 to 7.00	6.00 to 7.00	–	–	–	CN1CCC(N2CCC(c3ccc(Nc4ncc(-c5ccccn5)c(N[C@H]5CC[C@H](O)CC5)n4)cc3)CC2)CC1 [UNC5072A]	–
4.52 to 6.00	4.52 to 6.00	4.52 to 6.00	–	–	–	CNc1nc(Nc2ccc(C3CCN(C)CC3)cc2)ncc1-c1ccccn1 [UNC5136A]	–
6.00 to 7.00	4.52 to 6.00	6.00 to 7.00	–	–	–	CN1CCC(c2ccc(Nc3ncc(-c4ccccn4)c(N[C@H]4CC[C@H](C)CC4)n3)cc2)CC1 [UNC5133A]	–
6.00 to 7.00	4.52 to 6.00	6.00 to 7.00	–	–	–	CN1CCC(c2ccc(Nc3ncc(-c4ccccn4)c(NC4CCOCC4)n3)cc2)CC1 [UNC5134A]	–
7.00 to 8.00	6.00 to 7.00	6.00 to 7.00	–	–	–	CN1CCC(c2ccc(Nc3ncc(-c4ccccn4)c(N[C@H]4CC[C@H](O)CC4)n3)cc2)CC1 [UNC5130A]	–
6.00 to 7.00	4.52 to 6.00	6.00 to 7.00	–	–	–	O[C@H]1CC[C@H](Nc2nc(Nc3ccc(-c4cccnc4)cc3)ncc2-c2ccccn2)CC1 [UNC4435A]	–
